The source made the active and inactive calls. No cut-off for these calls is given here.
Assays:
SMMC-7721 = assay: Growth inhibition of human SMMC7721 cells after 48 hrs by MTT assay; type: functional, cell-based; conditions: SMMC-7721, 48 h
HCT-116 [1] = assay: Growth inhibition of human HCT116 cells after 24 hrs by MTT assay; type: functional, cell-based
CT26 [2] = assay: Growth inhibition of mouse CT26 cells after 24 hrs by MTT assay; type: functional, cell-based
HCT-116 [3] = assay: Antimigratory activity against human HCT116 cells after 24 hrs by crystal violet staining based transwell assay; type: functional, cell-based
CT26 [4] = assay: Antimigratory activity against mouse CT26 cells after 24 hrs by crystal violet staining based transwell assay; type: functional, cell-based
CT26 [5] = assay: Antimetastatic activity against mouse CT26 cells implanted in Balb/c mouse assessed as inhibition of pulmonary metastasis nodules at 1 mg/kg, iv for 7 consecutive days starting from day 8 post tumor implantation measured on day 15 post tumor implantation relative to control; type: functional
Mus musculus [6] = assay: Toxicity in Balb/c mouse implanted with mouse CT26 cells assessed as changes in body weight at 1 mg/kg, iv for 7 consecutive days starting from day 8 post tumor implantation; type: organism-based; conditions: in vivo
Mus musculus [7] = assay: Toxicity in Balb/c mouse implanted with mouse CT26 cells assessed as changes in body weight at 1 mg/kg, iv for 14 consecutive days starting from day 8 post tumor implantation; type: organism-based; conditions: in vivo
Mus musculus [8] = assay: Toxicity in Balb/c mouse implanted with mouse CT26 cells assessed as increase in heart weight at 1 mg/kg, iv for 7 consecutive days starting from day 8 post tumor implantation; type: organism-based; conditions: in vivo
Mus musculus [9] = assay: Toxicity in Balb/c mouse implanted with mouse CT26 cells assessed as increase in heart weight at 1 mg/kg, iv for 14 consecutive days starting from day 8 post tumor implantation; type: organism-based; conditions: in vivo
Mus musculus [10] = assay: Toxicity in Balb/c mouse implanted with mouse CT26 cells assessed as increase in spleen weight at 1 mg/kg, iv for 14 consecutive days starting from day 8 post tumor implantation; type: organism-based; conditions: in vivo
HCT-116 [11] = assay: Growth inhibition of human HCT116 cells at 2.5 to 7.5 uM after 24 hrs in presence of spermidine by MTT assay; type: functional, cell-based
HCT-116 [12] = assay: Upregulation of SSAT protein expression in human HCT116 cells at 2.5 to 10 uM after 24 hrs by Western blot method; type: functional, cell-based
[13] = Drug uptake in human HCT116 cells by confocal microscopic method; type: ADME, cell-based; conditions: hct-116
CT26 [14] = assay: Induction of autophagy in mouse CT26 cells after 24 hrs by MDC staining based flow cytometry; type: functional, cell-based
HCT-116 [15] = assay: Induction of apoptosis in human HCT116 cells assessed as live cells at 10 uM after 24 hrs by annexin V-FITC/propidium iodide staining based flow cytometry (reference value: 89.97%); type: functional
HCT-116 [16] = assay: Induction of apoptosis in human HCT116 cells assessed as early apoptotic cells at 10 uM after 24 hrs in presence of autophagy inhibitor 3-MA by annexin V-FITC/propidium iodide staining based flow cytometry (reference value: 4.1%); type: functional
HCT-116 [17] = assay: Induction of apoptosis in human HCT116 cells assessed as late apoptotic cells at 10 uM after 24 hrs in presence of pan-caspase inhibitor Z-VAD-FMK by annexin V-FITC/propidium iodide staining based flow cytometry (reference value: 2.03%); type: functional
HCT-116 [18] = assay: Induction of apoptosis in human HCT116 cells assessed as necrotic cells at 10 uM after 24 hrs in presence of pan-caspase inhibitor Z-VAD-FMK by annexin V-FITC/propidium iodide staining based flow cytometry (reference value: 3.9%); type: functional
CT26 [19] = assay: Induction of apoptosis in mouse CT26 cells assessed as late apoptotic cells at 10 uM after 24 hrs by annexin V-FITC/propidium iodide staining based flow cytometry (reference value: 2.26%); type: functional
CT26 [20] = assay: Induction of apoptosis in mouse CT26 cells assessed as live cells at 10 uM after 24 hrs in presence of autophagy inhibitor 3-MA by annexin V-FITC/propidium iodide staining based flow cytometry (reference value: 89.47%); type: functional
CT26 [21] = assay: Induction of apoptosis in mouse CT26 cells assessed as early apoptotic cells at 10 uM after 24 hrs in presence of autophagy inhibitor 3-MA by annexin V-FITC/propidium iodide staining based flow cytometry (reference value: 3.91%); type: functional
CT26 [22] = assay: Induction of apoptosis in mouse CT26 cells assessed as late apoptotic cells after 24 hrs by annexin V-FITC/propidium iodide staining based flow cytometry; type: functional, cell-based
CT26 [23] = assay: Induction of apoptosis in mouse CT26 cells assessed as early apoptotic cells after 24 hrs by annexin V-FITC/propidium iodide staining based flow cytometry; type: functional, cell-based
HCT-116 [24] = assay: Induction of apoptosis in human HCT116 cells assessed as late apoptotic cells after 24 hrs by annexin V-FITC/propidium iodide staining based flow cytometry; type: functional, cell-based
CT26 [25] = assay: Induction of autophagy in mouse CT26 cells at 10 to 20 uM after 24 hrs in presence of autophagy inhibitor 3-MA by MDC staining based flow cytometry; type: functional, cell-based
CT26 [26] = assay: Induction of autophagy in mouse CT26 cells at 10 to 20 uM after 24 hrs in presence of autophagy inhibitor 3-MA by Lyso staining based flow cytometry; type: functional, cell-based
HCT-116 [27] = assay: Induction of autophagy in human HCT116 cells at 5 to 20 uM after 24 hrs in presence of pan-caspase inhibitor Z-VAD-FMK by MDC staining based flow cytometry; type: functional, cell-based
HCT-116 [28] = assay: Induction of autophagy in human HCT116 cells at 5 to 20 uM after 24 hrs in presence of pan-caspase inhibitor Z-VAD-FMK by Lyso staining based flow cytometry; type: functional, cell-based
HCT-116 [29] = assay: Induction of autophagy in human HCT116 cells assessed as accumulation of LC3-2 after 24 hrs by Western blot method; type: functional, cell-based
HCT-116 [30] = assay: Upregulation of LAMP1 protein expression in human HCT116 cells at 10 uM after 24 hrs by Western blot method; type: functional, cell-based
HCT-116 [31] = assay: Downregulation of cathepsin-D protein expression in human HCT116 cells after 24 hrs by Western blot method; type: functional, cell-based
HCT-116 [32] = assay: Downregulation of beta-catenin protein expression in human HCT116 cells after 24 hrs by Western blot method; type: functional, cell-based
HCT-116 [33] = assay: Downregulation of MMP2 protein expression in human HCT116 cells after 24 hrs by Western blot method; type: functional, cell-based
HCT-116 [34] = assay: Upregulation of cleaved caspase-3 protein expression in human HCT116 cells up to 10 uM after 24 hrs by Western blot method; type: functional, cell-based
HCT-116 [35] = assay: Upregulation of cleaved caspase-8 protein expression in human HCT116 cells up to 10 uM after 24 hrs by Western blot method; type: functional, cell-based
HCT-116 [36] = assay: Downregulation of Akt protein expression in human HCT116 cells up to 10 uM after 24 hrs by Western blot method; type: functional, cell-based
HCT-116 [37] = assay: Downregulation of Bcl2 protein expression in human HCT116 cells up to 10 uM after 24 hrs by Western blot method; type: functional, cell-based
HCT-116 [38] = assay: Upregulation of p53 protein expression in human HCT116 cells after 24 hrs by Western blot method; type: functional, cell-based
HCT-116 [39] = assay: Upregulation of cleaved caspase-8 protein expression in human HCT116 cells up to 10 uM after 24 hrs in presence of autophagy inhibitor 3-MA by Western blot method; type: functional, cell-based

## Cl.Cl.Cl.NCCCCNCCCCNCCCCN1C(=O)c2cccc3cccc1c23
SMMC-7721
  IC50: 13.5 µM
HCT-116 [1]
  growth inhibition (GI): Dose-dependent effect
HCT-116 [1]; HCT-116, 24 h
  IC50: 6.9 µM
CT26 [2]
  growth inhibition (GI): Dose-dependent effect
CT26 [2]; CT26, 24 h
  IC50: 11.6 µM
HCT-116 [3]
  Activity: Dose-dependent effect
CT26 [4]
  Activity: Dose-dependent effect
CT26 [5]
  inhibition in vivo at 1 mg/kg: 82.5%
Mus musculus [6]
  Activity: Non-Toxic
Mus musculus [7]
  Activity: Non-Toxic
Mus musculus [8]
  Activity: Toxic
Mus musculus [9]
  Activity: Toxic
Mus musculus [10]
  Activity: Toxic
HCT-116 [11]
  growth inhibition (GI): inactive
HCT-116 [12]
  Activity: Dose-dependent effect
[13]
  Drug uptake: Dose-dependent effect and Tde
CT26 [14]
  Activity: Dose-dependent effect
HCT-116 [15]
  Activity: 38.14%
HCT-116 [16]
  Activity: 17.3%
HCT-116 [17]
  Activity: 13.6%
HCT-116 [18]
  Activity: 8.07%
CT26 [19]
  Activity: 23.22%
CT26 [20]
  Activity: 61.63%
CT26 [21]
  Activity: 27.36%
CT26 [22]
  Activity: Dose-dependent effect
CT26 [23]
  Activity: Dose-dependent effect
HCT-116 [24]
  Activity: Dose-dependent effect
CT26 [25]
  Activity: inactive
CT26 [26]
  Activity: inactive
HCT-116 [27]
  Activity: inactive
HCT-116 [28]
  Activity: inactive
HCT-116 [29]
  Activity: Dose-dependent effect
HCT-116 [30]
  Activity: Active
HCT-116 [31]
  Activity: Dose-dependent effect
HCT-116 [32]
  Activity: Dose-dependent effect
HCT-116 [33]
  Activity: Dose-dependent effect
HCT-116 [34]
  Activity: Active
HCT-116 [35]
  Activity: Active
HCT-116 [36]
  Activity: Active
HCT-116 [37]
  Activity: Active
HCT-116 [38]
  Activity: Dose-dependent effect
HCT-116 [39]
  Activity: inactive

— ChEMBL document CHEMBL4130638, “Discovery of the Polyamine Conjugate with Benzo[ cd]indol-2(1 H)-one as a Lysosome-Targeted Antimetastatic Agent” (J Med Chem, 2018)
